Patent publication US6020373A, “Chelate derivatives as protectors against tissue injury” (Eastern Virginia Medical School, priority 1997, dated 2000)
“Also recorded” adds a separate entry of the source.

Legend:
in vivo = settings: mouse, in vivo, ip
Experimental: (§1) For all biological studies, the substances were dissolved in water and brought to pH 7. […] Preliminary determination of the approximate toxicity level of the substances was by intraperitoneal (IP) injection of increasing doses into individual Swiss-Webster female mice until toxicity was evident. The maximum tolerated dose was the highest dose given without evident toxic symptoms such as coma, convulsions, or death. The LD 50 (IP) was determined by using at least three doses in 12 mice at each level, bracketing the approximate LD 50. The mice were followed for at least one week and examined for weight changes, general condition, and behavior. The LD 50 with lower and upper confidene iits was calculated from the data.

[1] = tested on: radiation damage of right hind leg; assay: Radioprotection in mice: radiation damage scores of the irradiated right hind leg; settings: for Av score (average radiation damage score, day 15-20): 6 mice per group; for effectiveness as radioprotectant: IP, mice, limb irradiation 30-40 Gy; for Av Score (average radiation damage score, day 12-24): 30 Gy to right limb, 12 mice per group, IP mmole/kg: IDA 16.7, EDTA 8.6, MPEG 17.9, MIDA 10.3, MPEDTA 7.7, saline 1.54
Experimental: The effect of PEG derivatives on tissue tolerance to radiation was tested. Groups of 6 or 12 female Swiss-Webster mice were given IP solutions of the derivatives at a dose of approxfimately one-half of the LD50. Ten minutes later, pentobarbital (PB) 0.262 mmole/kg was given IP, and twenty minutes after the first injection, the right hind leg only was irradiated with 30, 35 or 40 Gy using the Philips RT-250 unit operated under the following conditions: 200 kVp, 20 mA, 0.2 mm Cu added filtration, HVL 0.57 mm Cu, dose rate of 1.834 Gy/min. Mice were irradiated in groups of 6 or 12, and their legs were arranged within a 20×24 cm aperture cone at a 50 cm target-to-skin distance such that all their legs were within a 95% isodose. The output of the X-ray unit was calibrated using a Capintec PT-06C Farmer chamber. Controls received only PB and 0.4 ml normal saline in place of the drug.
The mice were examed daily by two independent observers for 24 days, and the limbs were scored for radiation damage graded on a scale of 0 to 3.5 according to criteria previously established (Fowler, et al., Int. J. Rad. Biol., 9:241-252, 1964). Briefly, a score of 1 corresponds to definite reddening of the foot compared to normal and a score of 2 is marked moist desquamation, loss of hair and skin, and sticking together of toes.

[2] = tested on: blood urea nitrogen levels (BUN); assay: Effect on renal toxicity of doxorubicin (blood urea nitrogen); settings: 27 days, FIG. 3; for prevention of doxorubicin-induced BUN increase: 7 mmole/kg IP one hour before 25 mg/kg doxorubicin into tail vein
[3] = in vivo; cited from earlier work
[4] = tested on: tissue injury, such as myocardial ischemia-reperfusion injury; settings: in vivo; cited from earlier work
B16F1 malignant melanoma = assay: Effect on doxorubicin-caused tumor growth lag; type: in vivo, C57Bl/6 mice; settings: IP 30 minutes before doxorubicin 15 mg/kg IP; FIG. 4
Experimental: For this assay, the B16F1 malignant melanoma which grows in isologous C57Bl/6 mice was used. […] When the tumors reached an average of 6-8 mm diameter, they were placed in closely matched groups of 12 with similar average size tumors. The groups were injected intraperitoneally with either saline or MPEDTA, followed 30 minutes later by doxorubicin 15 mg/kg IP or saline. Tumor volumes were assessed by daily caliper measreients m two orthogonal planes. Tumor length is defined as the diameter in the plane parallel to the body, while width is defined as the diameter perpendicular to the body. Diameter product (in mm^2) was used as the index of tumor growth. The tumor areas were averaged and plotted vs. time to show growth delay as a function of the various treatments. When the average area reached […], the mice were killed by cervical dislocation. The results are in FIG. 4. The solid circles indicate the groups receiving saline-saline or MPEDTA-saline, the solid squares indicate the group receiving saline-doxorubicin, and the solid triangles indicate the group receiving MPEDTA-doxorubicin.

Mice = assay: in vivo; settings: IP, mice; for LD50: 12 mice at each level, LL and UL confidence limits in own columns; for MTD (maximum tolerated dose): highest dose without evident toxic symptoms such as coma, convulsions, or death
Experimental: as §1

[5] = 40 Gy, IP mmole/kg: EDTAE, DTPA ester, MPDTE 1.0, MPEDTAE 2.0, MPEDTA 8.0, saline 2.93
[6] = 35 Gy, IP mmole/kg: EDTA, DTPA, MPEDTA, MPDTP 8.0, EDTAE 1.0, MPEDTAE, MPDTE 2.0, saline 2.36

| Molecule | MTD (in vivo) | Av score (average radiation damage score, day 15-20) [1, 5] | effectiveness as radioprotectant [1] | Av score (average radiation damage score, day 15-20) [1, 6] | Av Score (average radiation damage score, day 12-24) [1] | other results |
| --- | --- | --- | --- | --- | --- | --- |
| COC(=O)CN(CCN(CC(=O)OC)CC(=O)OC)CCN(CC(=O)OC)CC(=O)OC [DTPA methyl ester] | 1000 µmol/kg | 2.50 | not effective |  |  |  |
| Metyl Ester of MPEDTA [MPEDTAE] |  | 1.45 | also effective in protection from tissue injury | 0.88 |  |  |
| Methoxypolyethyene Glycol Amide with DTPA. Calcium Sodium Salt [MPDTP] |  |  |  | 1.21 |  |  |
| COc1cccc2c1C(=O)c1c(O)c3c(c(O)c1C2=O)C[C@@](O)(C(=O)CO)C[C@@H]3O[C@H]1C[C@H](N)[C@H](O)[C@H](C)O1 [Doxorubicin, doxorubicin] |  |  |  |  |  | BUN compared with the untreated control group ([2]; 25 mg/kg doxorubicin into tail vein): markedly increased BUN |
| CC(=O)N(O)CCCCCNC(=O)CCC(=O)N(O)CCCCCNC(=O)CCC(=O)N(O)CCCCCN [deferoxamine (DEF), deferoxamine] |  |  |  |  |  | excretion / circulation lifetime [3]: rapid excretion; effectiveness in reducing tissue injury [4]: some effectiveness in reducing tissue injury |
| O=C(O)CN(CCN(CC(=O)O)CC(=O)O)CC(=O)O [EDTA, ethylene-diamine tetraacetic acid] | 8000 µmol/kg |  |  |  |  | prevention of doxorubicin-induced BUN increase [2]: not |
| Methoxypolyethlene Glycol Amide with EDTA [MPEDTA] |  | 1.67 | extremely effective; also recorded: very effective in reducing or preventing damage from radiation or doxorubicin | 1.50 | 0.24 | prevention of doxorubicin-induced BUN increase [2]: completely prevented; effect on tumoricidal effect of / tumor growth lag produced by doxorubicin (B16F1 malignant melanoma): clearly did not interfere with the tumoricidal effect of doxorubicin; also recorded: lack of effect; LD50 (Mice): 12.5 mmol/kg; MTD (maximum tolerated dose) (Mice): 8 mmol/kg |
| O=C(O)CNCC(=O)O [IDA, iminodiacetate] | 17000 µmol/kg |  |  |  | 1.19 | LD50 (in vivo): 33100 µmol/kg |
| Methoxypolyethylene Glycol Iminodiacetate [MIDA] |  |  | moderately effective |  | 0.67 | LD50 (Mice): 20.6 mmol/kg; MTD (maximum tolerated dose) (Mice): 8 mmol/kg; ANOVA comparison of average scores between groups ([1]; average radiation damage scores, Tables II and III): little difference |
| O=C(O)CN(CCN(CC(=O)O)CC(=O)O)CCN(CC(=O)O)CC(=O)O [DTPA, diethylene triamine pentaacetic acid] | 8000 µmol/kg |  | slightly effective; also recorded: moderately effective | 1.34 |  |  |
